According to patent US20240327384A1, “SALTS AND SOLID STATE FORMS OF A KIF18A INHIBITOR COMPOUND” (Amgen Inc., priority 2021, published 2024):
Values after ≈ are worked out from the molar mass of the structure shown. Where two headings read alike, the source gives them in different places. Marks after values point to notes of the source that are not given here.

Key:
[1] = Solubility and powder dissolution of salts in FaSSIF (Example 46); assay type: physicochemical
Excerpt: All three salts can convert to the free base, but maintain supersaturation in FaSSIF for some time, which indicated a potential good absorption in vivo if used in a pharmaceutical dosage form.

[2] = Dynamic vapor sorption (moisture sorption, hygroscopicity); assay type: physicochemical; settings: for DVS weight gain: by 95% RH
Description: Moisture sorption data was collected using a VTI SGA 100 symmetrical vapor sorption analyzer. A sample size of approximately 5 mg to 10 mg was used in a platinum pan. Hygroscopicity was evaluated from 5% RH to 95% RH in increments of 5% RH. Data for adsorption and desorption cycles were collected. […] Dynamic Vapor Sorption (DVS): Moisture sorption data was collected using a Surface Measurement Systems […] instrument. Equilibrium criteria were set at ±0.001% weight change in 10 minutes with a maximum equilibrium time of 360 minutes.

pKa of ionizable groups = assay type: physicochemical
Excerpt: From high-throughput and manual polymorph screening, the present inventors generated various salts, hydrates, solvates, co-crystals of compound A; and a solid form of the Compound A, including crystalline anhydrous forms, salts, hydrates, solvates, and co-crystals thereof. […] Based on the solid-state properties of the free base forms of Compound A, and their inclinations to form solvates, the present inventors generated various salts, hydrates, solvates, and co-crystals of compound A that may be suitable for drug substance scale up and crystallization for pharmaceutical development.

KIF18A = target: T1, KIF18A (Homo sapiens, UniProt Q8NI77); assay: KIF18A ATPase inhibition; assay type: biochemical
T1 sequence (Q8NI77 1-898): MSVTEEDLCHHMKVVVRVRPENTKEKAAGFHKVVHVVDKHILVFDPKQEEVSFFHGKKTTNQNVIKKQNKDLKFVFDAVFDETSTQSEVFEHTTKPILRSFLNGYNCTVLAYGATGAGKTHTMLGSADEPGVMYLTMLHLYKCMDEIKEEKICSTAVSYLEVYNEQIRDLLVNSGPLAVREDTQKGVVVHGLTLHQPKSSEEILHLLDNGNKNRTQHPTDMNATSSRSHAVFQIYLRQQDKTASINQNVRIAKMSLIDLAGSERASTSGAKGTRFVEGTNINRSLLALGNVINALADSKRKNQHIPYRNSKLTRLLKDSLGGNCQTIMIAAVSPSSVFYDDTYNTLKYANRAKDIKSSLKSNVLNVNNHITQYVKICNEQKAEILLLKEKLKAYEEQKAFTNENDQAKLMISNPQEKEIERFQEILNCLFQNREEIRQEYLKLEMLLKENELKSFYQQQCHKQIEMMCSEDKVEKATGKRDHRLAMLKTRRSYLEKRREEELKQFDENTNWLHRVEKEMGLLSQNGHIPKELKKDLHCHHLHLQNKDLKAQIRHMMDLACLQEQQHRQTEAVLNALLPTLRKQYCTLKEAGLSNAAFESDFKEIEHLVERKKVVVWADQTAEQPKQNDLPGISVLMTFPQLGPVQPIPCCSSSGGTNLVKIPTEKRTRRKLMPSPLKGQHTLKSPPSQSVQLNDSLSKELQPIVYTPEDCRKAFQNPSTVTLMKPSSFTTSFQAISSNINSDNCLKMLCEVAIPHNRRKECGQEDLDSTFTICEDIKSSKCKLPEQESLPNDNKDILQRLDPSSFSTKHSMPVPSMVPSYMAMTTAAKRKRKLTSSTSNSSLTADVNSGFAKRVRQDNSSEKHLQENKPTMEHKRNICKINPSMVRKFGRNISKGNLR

[3] = Solubility in crystallization solvent 80/20 acetone/water; assay type: physicochemical; settings: organic solvent or mixture; 80/20 (v/v) acetone/water, crystallization and slurry aging solvent
Description: The process was unseeded and crystal growth occurs during the addition of hydrochloric acid to the Compound A solution. The final slurry was aged at ambient temperature for 10 h, then cooled to 10° C. prior to wet milling. Isolation of the milled material occurred at 10° C. followed by washing of the filter cake with 8 volumes of acetone. The material was dried at 40° C. under vacuum.

Dog cross-over PK study = assay type: in vivo
Description: A total of 3 male dogs were initially assigned to study. All animals were fasted for at least eight hours prior to dosing and through the first four hours of blood sample collection (food was returned within 30 minutes following the collection of the last blood sample at the 4 hour collection interval, if applicable).
Each animal receiver an oral gavage dose (PO) of the appropriate test article solution containing Compound A as outlined in the following study design table. Oral gavage dosing solutions were continuously stirred throughout dosing. The gavage tubes were rinsed with approximately 10 mL of tap water following dosing (prior to removal of the gavage tube). There was a minimum of 10-day washout period between doses for each phase.

[4] = Intrinsic dissolution rate (IDR) test; assay type: physicochemical
[5] = Solubility and powder dissolution in FaSSGF, FaSSIF, FeSSIF, water (Example 44); assay type: physicochemical; settings: for Sol (pH), Water (first value pair after FeSSIF): pH 1.14 (HCl Form 1), pH 1.08 (Variable Hydrate Form 2); for Sol (pH), Water (first value pair after FeSSIF) / Sol (pH), Water (second value pair after FeSSIF): head of medium unclear; for Sol (pH), Water (second value pair after FeSSIF): pH 1.58 (HCl Form 1), pH 1.64 (Variable Hydrate Form 2)
Description: Solubilities of various forms of the Compound A and the Compound A-HCl Form 1 were measured in Fasted State Simulated Gastric Fluid (FaSSGF), Fasted State Simulated Intestinal Fluid (FaSSIF), fed state simulated intestinal fluid […], and water.

[6] = Polymorph/salt screening: solid form stability, conversion and solubility; assay type: physicochemical
[7] = male dogs, fasted, PO 10 mg/kg, cross-over, listed as Amorphous Cmp A, 10 mg/kg
[8] = male, dog, plasma, po, 10 mg/kg, male dogs, fasted, cross-over
[9] = male, dog, plasma, po, 10 mg/kg, male dogs, fasted, cross-over, read-out: Tmax
[10] = pH 1.6, solubility from powder dissolution measurements
[11] = pH 6.5, solubility from powder dissolution measurements
[12] = pH 5.0, solubility from powder dissolution measurements
[13] = male dogs, fasted, PO 10 mg/kg, cross-over, listed as Cmp A-Anhydrous Form 3, 10 mg/kg

Cc1cc(NC(=O)c2ccc(NS(=O)(=O)CCO)cc2N2CCC3(CC2)CC3)nc(N2CCC(F)(F)CC2)n1 [Compound A-MsA Form 1]
kinetic solubility, dissolution rate and supersaturation in FaSSIF, in words ([1]; listed as Mesylate (A-MsA or A-MSA) Salt Form 1): better than the HCl Salt Form 1 | Sol (pH), FaSSIF ([1]; pH 6.5, listed as Cmp A-MSA Form 1): 133.0 (6.5) μg/mL | DVS weight gain ([2]; listed as Crystalline Compound A-MsA Form 1): about 1.2% | DVS weight gain ([2]; listed as crystalline Compound A-MsA Salt Form 1): less than 1.2%

Cc1cc(NC(=O)c2ccc(NS(=O)(=O)CCO)cc2N2CCC3(CC2)CC3)nc(N2CCC(F)(F)CC2)n1 [Compound A, 2-(6-azaspiro[2.5]octan-6-yl)-N-[2-(4,4-difluoropiperidin-1-yl)-6-methylpyrimidin-4-yl]-4-[(2-hydroxyethanesulfonyl)amino]benzamide]
pKa (pKa of ionizable groups; read-out: weakly acidic pKa): 7.3 | pKa (pKa of ionizable groups; read-out: weakly basic pKa): 3.9 | ATPase activity inhibited (MT-ATPase vs basal ATPase) (KIF18A): inhibits MT-ATPase activity and not basal ATPase activity | solubility [3]: ~18 mg/mL (≈ 31.9 mM)

Cc1cc(NC(=O)c2ccc(NS(=O)(=O)CCO)cc2N2CCC3(CC2)CC3)nc(N2CCC(F)(F)CC2)n1 [Anhydrous Compound A Form 5]
DVS observation in words [2]: rehydrated to the Compound A-Variable Hydrate Form 2

Cc1cc(NC(=O)c2ccc(NS(=O)(=O)CCO)cc2N2CCC3(CC2)CC3)nc(N2CCC(F)(F)CC2)n1 [Compound A-TsA Form 4]
kinetic solubility, dissolution rate and supersaturation in FaSSIF, in words ([1]; listed as Tosylate (A-TsA or A-TSA) Salt Form 4): better than the Mesylate (A-MsA or A-MSA) Salt Form 1 | Sol (pH), FaSSIF ([1]; pH 6.5, listed as Cmp A-TSA Form 4): 160.6 (6.5) μg/mL

Cc1cc(NC(=O)c2ccc(NS(=O)(=O)CCO)cc2N2CCC3(CC2)CC3)nc(N2CCC(F)(F)CC2)n1 [Compound A-Sulfate Form 1]
DVS observation in words ([2]; listed as Crystalline Compound A-Sulfate Form 1): deliquesces at 90% RH

Cc1cc(NC(=O)c2ccc(NS(=O)(=O)CCO)cc2N2CCC3(CC2)CC3)nc(N2CCC(F)(F)CC2)n1 [Amorphous Compound A]
AUCt (Dog cross-over PK study; [7]): 237 ± 68 µM·h | Cmax (Dog cross-over PK study; [7]): 6.9 ± 1.3 µM | Tmax (Dog cross-over PK study; [7]): 6.7 ± 2.3 h | IDR ([4]; listed as Amorphous Cmp A): 36.2 ug/min*cm^2

Cc1cc(NC(=O)c2ccc(NS(=O)(=O)CCO)cc2N2CCC3(CC2)CC3)nc(N2CCC(F)(F)CC2)n1.Cl [Compound A-HCl Form 1]
exposure compared to Amorphous Compound A, in words (Dog cross-over PK study; dog, PO 10 mg/kg): lower exposure than the Amorphous Compound A form | increase in exposure compared to Compound A-Anhydrous Form 3 (Dog cross-over PK study; dog, PO 10 mg/kg): ~2 fold | AUC(0-t) (Dog cross-over PK study; [8]): 181 ± 79 µM·h | Cmax (Dog cross-over PK study; [8]): 4.7 ± 1.4 µM | Tmax (Dog cross-over PK study; [9]): 6 h | powder dissolution compared with other forms, in words [5]: faster dissolution than the Compound A-Variable-Hydrate Form 2, or Compound A-Anhydrous Form 3, but a slower dissolution than the Amorphous Compound A | Sol (pH), FaSSGF [5, 10]: 6.3 ± 0.5 μg/mL | Sol (pH), FaSSIF [5, 11]: 62.7 ± 9.0 μg/mL | Sol (pH), FeSSIF [5, 12]: 437.1 ± 16.3 (5.0)^ μg/mL | Sol (pH), Water (first value pair after FeSSIF) [5]: 7.9 μg/mL | Sol (pH), Water (second value pair after FeSSIF) [5]: 13 μg/mL | IDR [4]: 2.14 ug/min*cm^2 | solubility [3]: ~8 mg/mL | Sol (pH), FaSSIF ([1]; pH 6.5): 104.2 (6.5) μg/mL | DVS weight gain [2]: less than 0.5%

Cc1cc(NC(=O)c2ccc(NS(=O)(=O)CCO)cc2N2CCC3(CC2)CC3)nc(N2CCC(F)(F)CC2)n1 [Anhydrous Compound A Form 3]
AUCt (Dog cross-over PK study; [13]): 69 ± 6 µM·h | Cmax (Dog cross-over PK study; [13]): 2.3 ± 0.2 µM | Tmax (Dog cross-over PK study; [9]): 4.7 ± 1.2 h | Sol (pH), FaSSGF ([5]; pH 1.6 (end of experiment), solubility from 2 hr time point): 99.3 μg/mL | Sol (pH), FaSSIF ([5]; pH 6.5 (end of experiment), solubility from 2 hr time point): 87 μg/mL | Sol (pH), FeSSIF ([5]; pH 5.0 (end of experiment), solubility from 2 hr time point): 352 (5.0)* μg/mL | Sol (pH), Water ([5]; Water, pH 8.0 (end of experiment), solubility from 2 hr time point): 5.4 (8.0)* μg/mL | DVS weight gain [2]: about 1.5%

Cc1cc(NC(=O)c2ccc(NS(=O)(=O)CCO)cc2N2CCC3(CC2)CC3)nc(N2CCC(F)(F)CC2)n1 [Compound A-Variable Hydrate Form 2]
solubility, in words [6]: very low solubility | Sol (pH), FaSSGF [5, 10]: 20 μg/mL | Sol (pH), FaSSIF [5, 11]: 10.6 μg/mL | Sol (pH), FeSSIF [5, 12]: 144.5(5.0)^ μg/mL | Sol (pH), Water (first value pair after FeSSIF) [5]: 243 μg/mL | Sol (pH), Water (second value pair after FeSSIF) [5]: 23 μg/mL | IDR ([4]; listed as Cmp A-Variable Hydrate Form 2): 0.42 ug/min*cm^2 | DVS weight gain [2]: about 3.4%
